Reference: publication PMC4127532 (Journal of Medicinal Chemistry, 2014)

Tested on: A/England/195/2009 (H1N1), M2/N31
Type: cell-based
Conditions: 100 μM

For NC1C2CC3CC(C2)CC1C3 (stereo not shown) [Compound 3], the “% block after 30 min” value was 16 (100 μM; 1) %.
